In patent EP0294538B1, “Use of nigericin for the production of a medicament for the treatment of viral diseases” (S O "PHARMACHIM", priority 1987, dated 1988):

How the values were obtained:
[1] = system: Virus-Erkrankungen des Auges; assay: Clinical study of different treatments of viral diseases of the eye (Table 1); assay type: in vivo, Patienten
Excerpt: Ergebnisse der klinischen Untersuchungen von Nigerizin (s. Tabelle 1).
Das Nigerizin enthaltende Arzneimittel in Form von Tropfen, Salbe und Suppositorien wurde an insgesamt 711 Patienten mit verschiedenen Virus-Erkrankungen: Labial-, Fazial-, Genital- und Gluteal- oder Femoralherpes, Herpes und Adenovirus-Keratitis und Konjunktivitis, Vaginitis, Endocervicitis und Exocervicitis mit Herpes-Ethiologie, Herpes Zoster der Augen und Haut angewendet.
Nigerizin-Tropfen wurden an 112 Patienten in drei Augenkliniken des Medizinischen Akademie-Forschungsinstitutes für Augenkrankheiten, Lehrstuhl für Ophthalmologie an den Hochschulen für Medizin in Varna und in Pleven verabreicht.

[2] = system: Herpes-Erkrankungen; assay: Efficacy of nigericin ointment depending on the start of treatment (Table 4); assay type: in vivo, Patienten; details: treatment begun on the first day; analysis of 88 patients
Excerpt: Es wurde die Abhängigkeit zwischen der Wirksamkeit der Behandlung mit Nigerizin-Salbe und dem Beginn der Behandlung untersucht (siehe Tabelle 4). TABELLE 4
Bei 140 mit Nigerizin-Salbe behandelten Patienten wurde eine Wirksamkeit von 90% erreicht, verglichen mit weniger als 20% für die mit Placebo behandelten Kontrollgruppe. Die eingehende Analyse der Ergebnisse an 88 Patienten zeigt, daß es sehr wichtig ist, bei Nigerizin früh mit der Behandlung zu beginnen, wobei am ersten Tag die Wirksamkeit bis zu 100% beträgt. Bei den Patienten, die mit einer Placebo-Salbe behandelt wurden, wird die Wirksamkeit nicht durch die Phase der Erkrankung beeinflußt, was ihren nicht spezifischen Charakter beweist.

[3] = system: Auge eines Kaninchens; assay type: in vivo, Kaninchen; details: topical; doses 20 times the therapeutic concentrations; 10 days
[4] = Acute toxicity by injection (LD50); parameters: species or system weißen Ratten und Mäusen; details: in vivo, white rats and mice, read-out: akute Toxizität (=LD₅₀)
Method: (§1) Bei Spritzenbehandlung: Die akute Toxizität bei weißen Ratten und Mäusen (=LD₅₀) liegt im Bereich von 55 bis 66 mg/kg. Die chronische sechsmonatige Toxizität in Dosen bis 1/10 der LD₅₀ beträgt bis zu 5,6 mg/kg. […] Die pharmakologische Untersuchung zeigte gute Toleranz bei verschiedenen Tieren bei Konzentrationen bis zu 1/10 der LD₅₀.

[5] = system: Ratten; assay: Chronic six-month toxicity by injection; assay type: in vivo; details: six months, doses up to 1/10 of LD₅₀ (up to 5,6 mg/kg), blood, coagulation, blood and urine biochemistry, liver, histology, general state, weight, behaviour
Method: as §1

[6] = system: trächtigen weißen Ratten; assay: Embryotoxicity and teratogenicity by injection; assay type: in vivo; details: doses up to 5,6 mg/kg, pregnant white rats
Method: as §1

[7] = system: verschiedenen Tieren; assay: Pharmacological tolerance study; assay type: in vivo; details: various animals; up to 1/10 of LD₅₀
Method: as §1

[8] = system: zentralen Nervensystem; assay: Safety pharmacology: central nervous system; details: in vivo
Method: as §1

[9] = system: Herz-Blutgefäß-System von Katzen; assay: Safety pharmacology: cardiovascular system (blood pressure, electrocardiogram); assay type: in vivo; details: cats; blood pressure and electrocardiograms
Method: as §1

[10] = system: Glattmuskulatur des Magen-Darm-Wegs; assay: Safety pharmacology: smooth muscle of the gastrointestinal tract; assay type: in vivo, Ratten und Kaninchen; details: rats and rabbits
Method: as §1

[11] = Mutagenicity
Method: as §1

[12] = Adenovirus-Keratokonjunktivitis

Compound: O=c1[nH]c(=O)n([C@H]2C[C@H](O)[C@@H](CO)O2)cc1I [Idoxyridin, 2'-desoxy-5-iodo-uridin]
- Dauer der Behandlung (Tage) [1, 12]: 9,3 Tage
- Prozent der günstigen Beeinflußung [1, 12]: 41 Prozent
- Dauer der Behandlung (Tage) ([1]; Oberflächen-Herpeskeratitis): 17,9 Tage
- Prozent der günstigen Beeinflußung ([1]; Oberflächen-Herpeskeratitis): 82 Prozent
- Dauer der Behandlung (Tage) ([1]; Tiefe/Ulzerose/ Keratitis): 25,2 Tage
- Prozent der günstigen Beeinflußung ([1]; Tiefe/Ulzerose/ Keratitis): 51 Prozent
- Durchschnittsaufenthalt im Krankenhaus (Tage) ([1]; all clinical forms of the treatment group): 23,6 Tage

Compound: COC1CC(CC2CCC(C)C(C(C)C(=O)O)O2)OC2(OC(C)(C3CCC(C)(C4OC(C5OC(O)(CO)C(C)CC5C)CC4C)O3)CC2C)C1C (stereo not drawn) [Nigerizin]
- Dauer der Behandlung ([1]; compared with Idoxyridin, immune and physico-chemical means): um mehr als zweimal verringert
- Wirksamkeit [2]: ≤ 100%
- toxische Wirkung am Auge [3]: keine toxische Wirkung
- LD50 [4]: 55 to 66 mg/kg
- chronische sechsmonatige Toxizität: Abweichungen der behandelten Ratten [5]: keine Abweichungen
- embryotoxische und terratogene Wirkung [6]: keine embryotoxische und terratogene Wirkung
- Toleranz [7]: gute Toleranz
- Veränderungen im zentralen Nervensystem [8]: keine Veränderungen
- Wirkung auf das Herz-Blutgefäß-System [9]: keine Wirkung
- Funktionen der Glattmuskulatur des Magen-Darm-Wegs [10]: ändert nicht
- Mutagenität [11]: keine Mutagenität
